From article PMC7334220, “Diamond Blackfan anemia is mediated by hyperactive Nemo-like kinase” (Nature Communications, 2020) come the findings set out here.

For assay [1], the target named is T1, p38 (Homo sapiens, UniProt Q16539).
T1 construct: endogenous in cells; host or cells: Kp53A1 cells stimulated with IL-3, IL-6, SCF and Epo; immunoprecipitated with a p38 antibody
Description: p38 in vitro kinase assay. It is filed as biochemical. The conditions noted are these: Supplementary Fig. 4b; read-out: observed IC50 against p38. The method, then: Equivalent protein was loaded between samples. b—blue Transduced progenitors were differentiated for 15 days and sorted for surface expression of CD235 + , CD41 + and CD11b + population NLK mRNA was assessed by qRT-PCR. c Control and shRPS19-transduced CB progenitors were differentiated for 10 days prior to separation into CD71^+ and CD71^- populations and assessed for pThr298-NLK phosphorylation by Western blot analysis. d—purple CB CD34 + progenitors were transduced with shRNA against luciferase (shLuc) or RPS19 (shRPS19) along with CFP-NLK and YFP-NLK and differentiated for 10 days. NLK dimerization was quantified by FRET. e—left panel NLK was immunoprecipitated from transduced differentiating CD71^+ and CD71^- populations after 10 days, and incubated in the presence of ATP, Mg^2+ and dephosphorylated NLK (i orange), c-Myb (ii—blue) and Raptor (iii—green) for 30 min at 37 °C. Phosphorylation was detected by a combination of anti^-phosphoserine-HRP and anti-phosphothreonine-HRP antibodies, or mouse anti-phosphoserine and anti-mouse-HRP antibodies. e—right panel For comparison, NLK in vitro kinase activity was assessed from CD235^+, CD41^+ and CD11b^+ populations enriched after identical treatments. f A panel of eight small molecule p38 inhibitors were titrated into in vitro kinase assays in the presence of activated NLK or p38 from stimulated Kp53A1 cells. […]

Assay [2] deals with RPL11-insufficient cord blood CD34+ HSPCs. Description: In vitro differentiation of cord blood CD34+ HSPCs transduced with shRNA against RPL11. It is filed as cell-based. Conditions: Homo sapiens, 360 h; read-out: erythroid expansion in RPL11-insufficiency, % of control. From the text:
Fig. 8 NLK inhibition increases expansion of erythroid progenitors from human and murine models of DBA. a Human cord blood CD34^+ progenitors were transduced with lentivirus co-expressing GFP with shRNA against luciferase (shLuc), RPS19 (shRPS19), or RPL11 (shRPL11). […] Cells were counted and assessed for cell surface expression of CD235. b Lin-Kit^+ hematopoietic progenitors were obtained from three mouse embryos expressing tetracycline-inducible shRNA against RPS19 at day E14.5 or three untreated mice, and thee mature RPL11^+/+ or three mature RPL11^+/lox mice treated with tamoxifen for eight weeks. […] Values were expressed as a percentage relative to untreated controls. c, d Intracellular phosphorylation of NLK at Thr298 was determined by capillary electrophoresis using the Peggy Sue™ Automated Western blotting platform. After lysis, 4 µg of protein from the CD235^+ population was probed against pThr298-NLK and normalized to GAPDH. […] After counting the total cell population, the ratio of CD235^+ erythroblasts was determined by flow cytometry and number of CD235^+ erythroblasts calculated. This was expressed as a percentage of the average number of erythroid cells present in untreated healthy controls. f NLK phosphorylation was assessed by capillary electrophoresis as above. Bars represent means ± SD with individual data points overlaid. […]

Broadly, the IC50 is the midpoint of a concentration-inhibition curve.

T1 sequence (Q16539 2-360 limits assumed): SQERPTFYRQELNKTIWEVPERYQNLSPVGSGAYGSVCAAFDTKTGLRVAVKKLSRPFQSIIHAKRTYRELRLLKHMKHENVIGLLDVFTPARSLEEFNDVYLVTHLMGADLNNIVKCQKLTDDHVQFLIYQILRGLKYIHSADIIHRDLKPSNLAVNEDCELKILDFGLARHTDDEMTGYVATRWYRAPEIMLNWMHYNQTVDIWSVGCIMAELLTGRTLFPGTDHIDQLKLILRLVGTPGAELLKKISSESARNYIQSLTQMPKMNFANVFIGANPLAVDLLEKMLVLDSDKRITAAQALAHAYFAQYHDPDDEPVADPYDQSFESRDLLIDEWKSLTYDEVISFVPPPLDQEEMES

As to `Fc1ccc(Cl)cc1-c1nc(Nc2ccncc2)c2nccnc2n1` [SD208], in assay [1], the IC50 was 910 nM. Also, the activity at 5 µM in assay [2] was found to be 36.7%.
